According to ChEMBL document CHEMBL1151282, “Flavonoids and benzene derivatives from the flowers and fruit of Tetrapanax papyriferus” (J Nat Prod, 2005):

Assay: Toxicity in brine shrimp after 24 hrs
Type: organism-based
Details: artemia, in vivo

| SMILES | LC50 at 24 h [µM] |
| --- | --- |
| C[C@@H]1O[C@@H](Oc2cc(O)c3c(=O)c(O)c(-c4ccc(O)cc4)oc3c2)[C@H](OC(=O)/C=C/c2ccc(O)cc2)[C@H](OC(=O)/C=C/c2ccc(O)cc2)[C@H]1O | 400 |
| C[C@@H]1O[C@@H](Oc2cc(O)c3c(=O)c(O)c(-c4ccc(O)cc4)oc3c2)[C@H](OC(=O)/C=C/c2ccc(O)cc2)[C@H](O)[C@H]1O | 570 |
| CC(=O)Oc1ccc(-c2oc3cc(OC(C)=O)cc(O)c3c(=O)c2OC(C)=O)cc1 | 2210 |
